This is an account of results in US6906092B2, “Method of inhibiting matrix metalloproteinases” (Warner-Lambert Company, priority 1996, dated 2005).

Data set [1] deals with MMP02 (GCD, recombinant gelatinase A catalytic domain) (Homo sapiens, UniProt P08253). As to the kind of experiment: Thiopeptolide assay, gelatinase A catalytic domain (GCD). The data set is classed as biochemical. The note with it: thiopeptolide substrate. The procedure:
(§1) IC50 values were determined using a thiopeptolide substrate, Ac-Pro-Leu-Gly-thioester-Leu-Leu-Gly-OEt (Ye Q.-Z., Johnson L. L., Hupe D. J., and Baragi V., “Purification and Characterization of the Human Stromelysin Catalytic Domain Expressed in Escherichia coli,” Biochemistry, 1992;31:11231-11235). MMP01, MMP07, MMP09, and MMP13 activity was assayed in a method similar to MMP02 and MMP03 (SCD and GCD). MMP01 and MMP09 can be obtained from Washington University School of Medicine, St. Louis, Mo. MMP07 can be obtained in accordance with the known procedure set forth by Ye Q-Z, Johnson L. L., and Baragi V., “Gene Syntheses and Expression in E. coli for PUMP, a Human Matrix Metalloproteinase” Biochem. and Biophys. Res. Comm., 1992;186:143-149. MMP13 can be obtained in accordance with the known procedure set forth by Freije J. M. P., et al., “Molecular Cloning and Expression of Collegenase-3, a Novel Human Matrix Metalloproteinase Produced by Breast Carcinomas” J. Bio. Chem., 1994;269:16766-16773.
(§2) Hydrolysis of the thiopeptolide substrate Ac-Pro-Leu-Gly-thioester-Leu-Leu-Gly-OEt (Bachem) is used as the primary screen to determine IC50 values for MMP inhibitors. A 100 μL reaction contains 1 mM 5,5′-dithiobis(2-nitrobenzoic acid) (DTNB), 100 μM substrate, 0.1% Brij, enzyme, and inhibitor in the appropriate reaction buffer. Activated full-length enzymes are assayed at 5 nM, Stromelysin Catalytic Domain (SCD) at 10 nM, and Gelatinase A Catalytic Domain (GaCD) at 1 nM. Inhibitors are screened from 100 μM to 1 nM. Full-length enzymes are assayed in 50 mM HEPES, 10 mM CaCl2, pH 7.0; SCD in 50 mM MES, 10 mM CaCl2, pH 6.0; and GaCD in 50 mM MOPS, 10 mM CaCl2, 10 μM ZnCl2, pH 7.0.

Data set [2] concerns the target T1, MMP01 (fibroblast collagenase) (Homo sapiens, UniProt P03956).
T1 construct: purchased Washington University School of Medicine, St. Louis, Mo
T1 sequence (P03956 100-469): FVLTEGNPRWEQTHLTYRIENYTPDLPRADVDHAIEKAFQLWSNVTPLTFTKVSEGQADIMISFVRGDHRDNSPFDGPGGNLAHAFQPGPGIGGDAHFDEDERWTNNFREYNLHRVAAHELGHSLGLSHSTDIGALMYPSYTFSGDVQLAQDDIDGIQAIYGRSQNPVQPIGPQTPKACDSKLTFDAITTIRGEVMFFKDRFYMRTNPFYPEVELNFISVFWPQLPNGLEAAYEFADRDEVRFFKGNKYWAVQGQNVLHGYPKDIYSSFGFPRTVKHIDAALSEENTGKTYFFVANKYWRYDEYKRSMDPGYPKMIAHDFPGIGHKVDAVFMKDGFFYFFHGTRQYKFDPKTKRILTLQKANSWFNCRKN
In words: Thiopeptolide assay, MMP01. Type of data set: biochemical. The note with it: thiopeptolide substrate. The procedure:
as §1, §2

In data set [3] the target is T2, MMP03 (SCD, stromelysin-1 catalytic domain) (Homo sapiens, UniProt P08254).
T2 construct: SCD (stromelysin-1 catalytic domain); made in house; host or cells: Escherichia coli
In words: Thiopeptolide assay, stromelysin-1 catalytic domain (SCD). The data set is classed as biochemical. The note with it: thiopeptolide substrate. The protocol:
as §1, §2

Data set [4] can be described thus: MMP inhibitor bioassay (inhibitor plasma level after gavage). The data set is classed as in vivo, rat. The note with it: 50 mg/kg by gavage. The procedure: Animals are dosed by gavage with either vehicle or compound at 2, 10, or 50 mg/kg. Blood samples are collected from 3 to 4 animals from each dosing group at 1, 2, 4, 6, and 24 hour postdose, centrifuged, and the plasma immediately frozen at −20° C. Plasma protein is precipitated with an equal volume of acetonitrile and separated by centrifugation at room temperature. The supernate is evaporated to dryness and reconstituted to the original plasma volume with 50 mM Tris, pH 7.6. Ten-fold serial dilutions of the reconstituted plasma samples are prepared in 50 mM Tris, pH 7.6 for dose response assays using the appropriate thiopeptolide assay. […] All control samples are subjected to acetonitrile precipitation and analyzed with the thiopeptolide assay.

Data set [5] addresses T3, stromelysin catalytic domain (SCD) (Homo sapiens, UniProt P08254).
T3 construct: SCD (stromelysin-1 catalytic domain); made in house; host or cells: Escherichia coli
In words: Soluble proteoglycan assay (stromelysin natural substrate assay) SCD (PG). Type of data set: biochemical. The note with it: solubilized proteoglycan substrate. The procedure: Soluble Proteoglycan Assay (Stromelysin Natural Substrate Assay) SCD (PG)
Solubilized proteoglycan substrate is prepared from bovine cartilage powder (Sigma) using the method described by Nagase and Woessner in Anal. Biochem., 1980;107:385-392. A 100 μL reaction contains 10 μg/mL proteoglycan, enzyme, and inhibitor in 50 mM MES, 10 mM CaCl2, pH 6.0. Activated full-length stromelysin or stromelysin catalytic domain (SCD) is assayed at 100 nM. Inhibitors are screened from 100 μM to 1 nM. The reaction is incubated at 37° C. for 3 hours then stopped with the addition of 1,10-phenanthroline at a final concentration of 1 mM. Reaction products are separated from undigested substrate using ultrafree-MC polysulfone microcons with a 300,000 molecular weight cut-off membrane (Millipore) and quantified using a modified […] (DMB) assay described by Farndale, Sayers, and Barrett in Connective Tissue Research, 1982;9:247-248. Absorbance is measured at 518 nm using 32 μg/mL DMB in a 1 mL reaction. The standard curve is constructed from 0 to 100 μg shark cartilage chondroitin sulfate C (Sigma).

Data set [6] concerns the target gelatinase A (Homo sapiens, UniProt P08253). In words: Gelatin assay (gelatinase natural substrate assay) (Gel). Type of data set: biochemical. The protocol: Gelatin Assay (Gelatinase Natural Substrate Assay) (Gel)
Rat tail Type I collagen (Sigma) is denatured by heating at 95° C. for 20 minutes to prepare the gelatin substrate. A 50 μL reaction contains 1.12 mg/mL substrate, enzyme, inhibitor, and 80 μg/mL soy bean trypsin inhibitor as an inert internal standard in 50 mM MOPS, 10 mM CaCl2, 10 μM ZnCl2, pH 7.0. Activated full-length gelatinase A is assayed at 1 nM and gelatinase A catalytic domain (GaCD) at 10 nM. Inhibitors are screened from 100 μM to 1 nM. The reactions are incubated at 37° C. for 30 minutes then stopped with 50 μL at 2× Tricine gel loading buffer (Novex). Reaction products are separated from undigested substrate by electrophoresis on Tricine-SDS 10-20% polyacrylamide gradient gels (Novex). Protein bands are stained with Coomassie Brilliant Blue R and quantified using a Bio Image densitometer (Millipore). IC50 values are calculated from the disappearance of substrate using the sum of the top three bands of each reaction after normalization with the internal standard.

Data set [7] deals with T4, MMP13 (collagenase-3) (Homo sapiens, UniProt P45452).
T4 construct: made in house
In words: Thiopeptolide assay, MMP13. The note with it: thiopeptolide substrate. Type of data set: biochemical. The procedure:
as §1, §2

Data set [8] deals with T5, MMP07 (matrilysin) (Homo sapiens, UniProt P09237).
T5 construct: made in house; host or cells: E. coli
T5 sequence (P09237 95-267): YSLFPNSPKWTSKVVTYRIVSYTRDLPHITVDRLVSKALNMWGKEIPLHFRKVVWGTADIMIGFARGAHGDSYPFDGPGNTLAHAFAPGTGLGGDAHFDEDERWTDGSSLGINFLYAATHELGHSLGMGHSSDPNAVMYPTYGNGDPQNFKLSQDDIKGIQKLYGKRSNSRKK
In words: Thiopeptolide assay, MMP07. The data set is classed as biochemical. The note with it: thiopeptolide substrate. The protocol: as §1, §2

[9] abbreviates: catalytic domain, read-out: (GCD) MMP02 IC50.
[10] abbreviates: catalytic domain, read-out: (SCD) MMP03 IC50.

SMILES strings stand for the structures. Like-named read-outs stand apart in the source and are kept apart here.

T2 sequence (P08254 100-272 limits assumed): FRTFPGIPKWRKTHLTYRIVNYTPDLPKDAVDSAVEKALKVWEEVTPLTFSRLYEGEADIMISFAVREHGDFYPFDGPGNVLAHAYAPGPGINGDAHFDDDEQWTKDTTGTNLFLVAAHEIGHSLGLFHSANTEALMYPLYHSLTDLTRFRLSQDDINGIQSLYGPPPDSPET
MMP02 (GCD, recombinant gelatinase A catalytic domain), sequence (P08253 110-221 limits assumed): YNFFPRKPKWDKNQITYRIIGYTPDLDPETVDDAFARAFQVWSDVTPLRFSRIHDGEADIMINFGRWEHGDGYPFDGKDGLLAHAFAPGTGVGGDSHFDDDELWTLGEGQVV
MMP02 (GCD, recombinant gelatinase A catalytic domain), sequence (P08253 397-465 limits assumed): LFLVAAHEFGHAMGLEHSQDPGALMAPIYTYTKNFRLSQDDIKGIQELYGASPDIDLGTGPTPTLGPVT
T3 sequence (P08254 100-272 limits assumed): as the sequence (P08254 100-272 limits assumed) above

What is called IC50 is the concentration needed to halve the response being measured. In the case of `CC(C)C[C@H](NS(=O)(=O)c1ccc2oc3ccccc3c2c1)C(=O)O` [Example 1, (L)-2-(Dibenzofuran-2-sulfonylamino)-4-methyl-pentanoic acid], the concentration for half-maximal inhibition (IC50) in [1] (setting [9]) turned out to be 320 nM; in [2], 66000 nM.

On to `CCC(C)[C@H](NS(=O)(=O)c1ccc2oc3ccccc3c2c1)C(=O)O` (stereo partly shown) [Example 2, (L)-2-(Dibenzofuran-2-sulfonylamino)-3-methyl-pentanoic acid], for which the concentration for half-maximal inhibition (IC50) in data set [3] (setting [10]) amounted to 1500 nM; in data set [1] (setting [9]) it was 2300 nM.

As usually defined, the melting point is the temperature of the solid-liquid transition. With `O=C(O)[C@H](Cc1ccccc1)NS(=O)(=O)c1ccc2oc3ccccc3c2c1` [Example 3, (L)-2-(Dibenzofuran-2-sulfonylamino)-3-phenyl-propionic acid], the melting point was in the range of 196 to 198 °C. Further, the IC50 in data set [1] (setting [9]) came to 900 nM.

For `C[C@H](NS(=O)(=O)c1ccc2oc3ccccc3c2c1)C(=O)O` [Example 4, (L)-2-(Dibenzofuran-2-sulfonylamino)-propionic acid], the 50% inhibitory concentration (IC50) came out at 5400 nM in [3] (setting [10]) and 1700 nM in data set [1] (setting [9]).

Turning to `CC(C)[C@H](NS(=O)(=O)c1ccc2oc3ccccc3c2c1)C(=O)O` [Example 5, (L)-2-(Dibenzofuran-2-sulfonylamino)-3-methyl-butyric acid], the melting point is 163 to 165 °C. In addition, the “Bioassay Peak (inhibitor plasma level)” value in data set [4] (peak) came out at 82 µM. In [4] (rat, plasma, oral, 24 hours postdose), the concentration at 24 h is 180 nM. Further, the IC50 in [3] (Table 2, read-out: SCD (IC50)) stood at 233 nM. The IC50 in data set [5] amounted to 8900 nM. Further, the half-maximal inhibitory concentration (IC50) in data set [1] (Table 2, read-out: GCD (IC50)) stood at 84 nM. In [1] (setting [9]), the IC50 turned out to be 84 nM. In addition, inhibition in data set [2] was half-maximal at 19000 nM (IC50). Also, half-maximal inhibition in data set [6] (IC50) was put at 580 nM.

As for `O=C(O)CNS(=O)(=O)c1ccc2oc3ccccc3c2c1` [Example 6, (Dibenzofuran-2-sulfonylamino)-acetic acid], the melting point lay in the range of 208 to 210 °C. Moreover, the 50% inhibitory concentration (IC50) in data set [3] (setting [10]) amounted to 4800 nM. The IC50 in [1] (setting [9]) came out at 730 nM.

The compound `O=C(O)C[C@H](NS(=O)(=O)c1ccc2oc3ccccc3c2c1)C(=O)O` [Example 7, (L)-2-(Dibenzofuran-2-sulfonylamino)-succinic acid] yielded a melting point of 165 to 168 °C. For the same compound, the IC50 in data set [3] (setting [10]) is 1000 nM. In addition, in [1] (setting [9]), the half-maximal inhibitory concentration (IC50) worked out at 1200 nM.

As to `O=C(O)[C@H](CSC(c1ccccc1)(c1ccccc1)c1ccccc1)NS(=O)(=O)c1ccc2oc3ccccc3c2c1` [Example 8, (L)-2-(Dibenzofuran-2-sulfonylamino)-3-tritylsulfanyl-propionic acid], the IC50 in data set [1] (setting [9]) amounted to 9400 nM.

Consider `O=C(O)[C@H](CS)NS(=O)(=O)c1ccc2oc3ccccc3c2c1` [Example 9, (L)-2-(Dibenzofuran-2-sulfonylamino)-3-mercapto-propionic acid], for which the IC50 in [1] (setting [9]) stood at 4500 nM.

Regarding `CCC(C)[C@H](NS(=O)(=O)c1ccc2oc3ccccc3c2c1)C(=O)NO` (stereo partly shown) [Example 10, (L)-2-(Dibenzofuran-2-sulfonylamino)-3-methyl-pentanoic acid hydroxyamide], in [1] (setting [9]), the IC50 came out at 35000 nM.

Regarding `CC(C)[C@H](NS(=O)(=O)c1ccc2c(c1)oc1ccccc12)C(=O)O` [Example 11, (L)-2-(dibenzofuran-3-sulfonylamino)-3-methyl-butyric acid], the IC50 in data set [3] (setting [10]) worked out at 15 nM; in data set [7], 47 nM; in data set [8], 5000 nM; in data set [1] (setting [9]), 4.5 nM; in [2] it was 1800 nM.

As for `CC(C)[C@H](NS(=O)(=O)c1ccc2c(c1)Cc1ccccc1-2)C(=O)O` [Example 12, (L)-2-(9H-Fluorene-2-sulfonylamino)-3-methyl-butyric acid], the IC50 worked out at 185 nM in data set [3] (setting [10]); 340 nM in data set [7]; 10800 nM in [8]; 49 nM in [1] (setting [9]); 32300 nM in data set [2].

`CC(C)[C@H](NS(=O)(=O)c1ccc2sc3ccccc3c2c1)C(=O)O` [Example 14, (L)-2-(Dibenzothiophene-2-sulfonylamino)-3-methyl-butyric acid]: the half-maximal inhibitory concentration (IC50) in data set [3] (setting [10]) was 690 nM; in data set [7], 2600 nM; in data set [8], 27000 nM; in data set [1] (setting [9]), 610 nM.

`CC(C)[C@H](NS(=O)(=O)c1ccc2oc3cc(Br)ccc3c2c1)C(=O)O` [Example 16, (L)-2-(7-Bromo-dibenzofuran-2-sulfonylamino)-3-methyl-butyric acid]: the IC50 in data set [3] (setting [10]) worked out at 750 nM; in data set [1] (setting [9]), 470 nM.

Turning to `CC(C)[C@H](NS(=O)(=O)c1ccc2oc3cc(-c4ccccc4)ccc3c2c1)C(=O)O` [Example 17, (L)-3-Methyl-2-(7-phenyl-dibenzofuran-2-sulfonylamino)-butyric acid], the half-maximal inhibitory concentration (IC50) in [3] (setting [10]) came to 62 nM; in [7], 690 nM; in data set [8], 6000 nM; in data set [1] (setting [9]) it was 360 nM.
